Structures can show the parent of a compound that is named as a salt.
Tests used:
[1] = molecular target: human Sortilin (Homo sapiens (Human), UniProt Q99523); test: Creoptix (GCI) binding kinetics, human Sortilin; details: screened at 1 μM
Protocol: A protein, bound to a surface, is bathed in a solution containing potential ligands giving rise to binding kinetics to generate Kon and Koff rates, as well as a Kd.
All buffers described were filtered using a 0.2 μm filter (Product number: 10300461, Nalgene) and degassed for 15 minutes prior to use.
A flow cell temperature of 25 degrees Celsius was used throughout the experiment.
A 4PCH chip was conditioned across all flow cells using 0.2× concentration running buffer (running buffer composition: 1×HBS-N, pH 7.4, 3.4 mM EDTA, 1% DMSO) using pre-set conditioning wizard (WAVE control software) injecting: 0.1 M borate, 1 M NaCl (pH 9) followed by three start-up injections of 0.2× running buffer.
A buffer exchange was performed and 1× running buffer (1×HBS-N, pH 7.4, 3.4 mM EDTA, 1% DMSO) used during the immobilisation procedure:
An initial injection of EDC/NHS (mixed in 1:1 ratio) was performed across all 4-flow cells to activate the surface for amine coupling of ligands.
Recombinant Sortilin aliquots were thawed quickly by hand and centrifuged at 13,300 rpm for 10 minutes. A 10 μg/ml protein solution was then made in pH 5.0 acetate and injected once for 20 minutes over flow-cells 2, 3 and 4 for human, human (flow cells 2 & 3), and mouse Sortilin respectively followed by a 60 second dissociation period.
A final 7-minute passivation injection of 50 mM tris was used across all flow cells.
A flow rate of 10 μl/min was used for all conditioning and immobilisation cycles.
Compounds were screened at 1 μM using the in-built ‘intermediate binders’ settings: 100 ul/min, 45 s baseline, 25 s association, 300 s dissociation, with blanks every 5th sample and a DMSO correction (1.5% DMSO at the start and end of the experiment as well as every 20 cycles. An acquisition rate of 10 Hz was used throughout the experiment.
Compounds were screened at a final assay concentration of 1 μM and a final DMSO concentration was 1%. To achieve this, compounds were diluted in DMSO from 10 mM stocks to 100 μM (100×final assay concentration) then diluted 1:100 in running buffer which contained no DMSO to establish a final assay concentration of compound of 1 μM and a final DMSO concentration of 1% [DMSO].
Compounds and DMSO were mixed by plate shaking at 1000 rpm for 60 seconds using a Bioshake instrument.
A flow rate of 100 μl/min was used throughout the experiment.
Data was evaluated using the RAPID kinetic analysis tool in the GCI WAVE_control software with data fitted using a standard 1:1 kinetic BioModel.

[2] = molecular target: h-Sortilin (Homo sapiens (Human), UniProt Q99523); test: Neurotensin (NTS) scintillation proximity assay (SPA): displacement of [3H]-neurotensin binding; details: 150 nM 6his-Sortilin, 5 nM [3H]-Neurotensin, average of at least 2 determinations
Protocol: The exemplified compounds of the invention were tested in a Neurotensin (NTS) scintillation proximity assay (SPA). NTS, which is a 13 amino acid neuropeptide, is a sortilin ligand. The IC50 is a measure of the amount of the compound required to inhibit the binding of NTS to sortilin by 50%. […] Compound affinity was determined by measuring the displacement of [^3H]-neurotensin binding to h-Sortilin in SPA format. […] IC50 values were calculated by nonlinear regression using the sigmoid concentration-response (variable slope) using CDD Vault software. All values reported are average of at least 2 determinations.

Sequence of human Sortilin (Q99523 78-755): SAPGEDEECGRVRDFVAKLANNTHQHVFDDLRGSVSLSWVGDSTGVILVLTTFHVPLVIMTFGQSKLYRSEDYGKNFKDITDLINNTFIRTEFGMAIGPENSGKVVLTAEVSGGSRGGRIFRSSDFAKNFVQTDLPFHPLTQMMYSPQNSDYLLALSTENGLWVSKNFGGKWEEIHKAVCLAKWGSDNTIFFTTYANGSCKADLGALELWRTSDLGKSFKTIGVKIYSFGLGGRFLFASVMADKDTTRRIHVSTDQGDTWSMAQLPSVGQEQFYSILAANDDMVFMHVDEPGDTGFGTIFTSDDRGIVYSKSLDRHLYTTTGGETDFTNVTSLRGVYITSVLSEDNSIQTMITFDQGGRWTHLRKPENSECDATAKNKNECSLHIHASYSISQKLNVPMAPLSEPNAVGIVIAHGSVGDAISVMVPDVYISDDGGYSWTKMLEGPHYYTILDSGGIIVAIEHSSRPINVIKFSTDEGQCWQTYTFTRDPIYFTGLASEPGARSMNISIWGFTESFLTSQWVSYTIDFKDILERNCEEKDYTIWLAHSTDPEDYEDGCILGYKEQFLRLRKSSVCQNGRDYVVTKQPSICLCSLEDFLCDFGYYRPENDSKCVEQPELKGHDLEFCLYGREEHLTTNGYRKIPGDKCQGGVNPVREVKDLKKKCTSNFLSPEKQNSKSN
Sequence of h-Sortilin (Q99523 78-831): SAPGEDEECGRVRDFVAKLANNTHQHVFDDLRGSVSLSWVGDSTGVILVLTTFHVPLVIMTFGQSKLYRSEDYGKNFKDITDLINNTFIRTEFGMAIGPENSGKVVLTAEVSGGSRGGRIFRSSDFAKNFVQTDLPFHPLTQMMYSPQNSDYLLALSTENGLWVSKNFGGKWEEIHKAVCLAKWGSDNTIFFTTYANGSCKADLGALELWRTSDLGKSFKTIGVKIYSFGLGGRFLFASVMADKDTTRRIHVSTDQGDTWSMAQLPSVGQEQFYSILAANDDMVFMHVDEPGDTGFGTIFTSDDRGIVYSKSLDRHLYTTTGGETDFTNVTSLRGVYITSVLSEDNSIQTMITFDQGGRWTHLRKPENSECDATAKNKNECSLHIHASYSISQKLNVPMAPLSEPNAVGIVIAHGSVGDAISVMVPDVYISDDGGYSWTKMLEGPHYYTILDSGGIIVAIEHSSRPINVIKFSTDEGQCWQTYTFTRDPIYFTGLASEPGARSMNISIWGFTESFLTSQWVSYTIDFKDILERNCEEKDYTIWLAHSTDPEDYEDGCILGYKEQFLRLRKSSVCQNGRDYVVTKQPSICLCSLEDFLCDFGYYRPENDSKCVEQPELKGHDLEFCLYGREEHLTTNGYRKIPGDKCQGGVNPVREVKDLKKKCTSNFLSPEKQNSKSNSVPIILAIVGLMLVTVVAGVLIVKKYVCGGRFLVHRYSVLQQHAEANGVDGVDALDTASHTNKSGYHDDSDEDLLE

Row | Compound | Kd ([1]; HCl salt) [nM] | IC50 [2] [nM] | Kd ([1]; Free acid) [nM] | IC50 ([2]; HCl) [nM]
1 | CC(C)(C)CC[C@H](NCc1ccccc1)C(=O)O [Example 3, (S)-2-(benzylamino)-5,5-dimethylhexanoic acid hydrochloride] | 902 | 766 | – | –
2 | COc1ccccc1CN[C@@H](CCC(C)(C)C)C(=O)O [Example 9, (S)-2-((2-methoxybenzyl)amino)-5,5-dimethylhexanoic acid hydrochloride] | 8450 | 630 | – | –
3 | COc1cccc([C@H](N[C@@H](CCC(C)(C)C)C(=O)O)C(F)F)c1 [Example 21, (2S)-2-{[(1S)-2,2-difluoro-1-(3-methoxyphenyl)ethyl]amino}-5,5-dimethylhexanoic acid] | – | 270 | 284 | –
4 | COc1cccc([C@@H](N[C@@H](CCC(C)(C)C)C(=O)O)C(F)F)c1 [Example 22, (2S)-2-{[(1R)-2,2-difluoro-1-(3-methoxyphenyl)ethyl]amino}-5,5-dimethylhexanoic acid] | – | 260 | 5960 | –
5 | COc1cccc([C@@H](N[C@@H](CCC(C)(C)C)C(=O)O)C(F)(F)F)c1 [Example 23, (2S)-5,5-dimethyl-2-{[(1R)-2,2,2-trifluoro-1-(3-methoxyphenyl)ethyl]amino}hexanoic acid] | – | 390 | 4020 | –
6 | COc1cccc([C@H](N[C@@H](CCC(C)(C)C)C(=O)O)C(F)(F)F)c1 [Example 24, (2S)-5,5-dimethyl-2-{[(1S)-2,2,2-trifluoro-1-(3-methoxyphenyl)ethyl]amino}hexanoic acid] | – | – | 230 | –
7 | COc1ccc(OC)c(CN[C@@H](CCC(C)(C)C)C(=O)O)c1 [Example 28, (2S)-2-{[(2,5-dimethoxyphenyl)methyl]amino}-5,5-dimethylhexanoic acid] | – | 2220 | 1020 | –
8 | COc1cc(F)cc(CN[C@@H](CCC(C)(C)C)C(=O)O)c1 [Example 29, (2S)-2-{[(3-fluoro-5-methoxyphenyl)methyl]amino}-5,5-dimethylhexanoic acid] | – | 550 | 571 | –
9 | COc1cc(Cl)cc(CN[C@@H](CCC(C)(C)C)C(=O)O)c1 [Example 30, (2S)-2-{[(3-chloro-5-methoxyphenyl)methyl]amino}-5,5-dimethylhexanoic acid] | – | 580 | 450 | –
10 | COc1cc(Br)cc(CN[C@@H](CCC(C)(C)C)C(=O)O)c1 [Example 31, (2S)-2-{[(3-bromo-5-methoxyphenyl)methyl]amino}-5,5-dimethylhexanoic acid] | – | 520 | 432 | –
11 | COc1cc(CN[C@@H](CCC(C)(C)C)C(=O)O)ccc1C [Example 33, (2S)-2-{[(3-methoxy-4-methylphenyl)methyl]amino}-5,5-dimethylhexanoic acid] | – | 400 | 242 | –
12 | COc1ccc(CN[C@@H](CCC(C)(C)C)C(=O)O)cc1OC [Example 38, (2S)-2-{[(3,4-dimethoxyphenyl)methyl]amino}-5,5-dimethylhexanoic acid] | – | 1360 | 747 | –
13 | CC(C)(C)CC[C@H](NCc1ccc2c(c1)CCCO2)C(=O)O [Example 40, (2S)-2-{[(3,4-dihydro-2H-1-benzopyran-6-yl)methyl]amino}-5,5-dimethylhexanoic acid] | – | 470 | 101 | –
14 | CC(C)(C)CC[C@H](NCc1ccc2c(c1)OCCO2)C(=O)O [Example 41, (2S)-2-{[(2,3-dihydro-1,4-benzodioxin-6-yl)methyl]amino}-5,5-dimethylhexanoic acid] | – | 330 | 5960 | –
15 | CC(C)(C)CC[C@H](NCc1cccc2c1OCO2)C(=O)O [Example 45, (2S)-2-{[(2H-1,3-benzodioxol-4-yl)methyl]amino}-5,5-dimethylhexanoic acid] | – | 1060 | 285 | –
16 | CC(C)(C)CC[C@H](NCc1cncnc1)C(=O)O [Example 55, (2S)-5,5-dimethyl-2-{[(pyrimidin-5-yl)methyl]amino}hexanoic acid] | – | 410 | 1980 | –
17 | COc1cc(C)cc(CN[C@@H](CCC(C)(C)C)C(=O)O)c1 [Example 69, (2S)-2-{[(3-methoxy-5-methylphenyl)methyl]amino}-5,5-dimethylhexanoic acid] | – | 1390 | 2760 | –

Row | Compound | Kd ([1]; HCl salt) [nM] | IC50 [2] [nM] | Kd ([1]; Free acid) [nM] | IC50 ([2]; HCl) [nM]
18 | COc1ccc(CN[C@@H](CCC(C)(C)C)C(=O)O)cc1O [Example 91, (2S)-2-{[(3-hydroxy-4-methoxyphenyl)methyl]amino}-5,5-dimethylhexanoic acid] | – | 390 | – | –
19 | Cc1cnccc1CN[C@@H](CCC(C)(C)C)C(=O)O [Example 93] | – | 1630 | – | –
20 | Cc1cncc(CN[C@@H](CCC(C)(C)C)C(=O)O)c1 [Example 95] | – | 690 | – | –
21 | Cc1nc2cc(CN[C@@H](CCC(C)(C)C)C(=O)O)ccc2s1 [Example 100, (2S)-5,5-dimethyl-2-{[(2-methyl-1,3-benzothiazol-5-yl)methyl]amino}hexanoic acid] | – | 380 | – | –
22 | Cn1ccc2cc(CN[C@@H](CCC(C)(C)C)C(=O)O)cnc21 [Example 106, (2S)-5,5-dimethyl-2-[({1-methyl-1H-pyrrolo[2,3-b]pyridin-5-yl}methyl)amino]hexanoic acid] | – | 590 | – | –
23 | COc1ccc([C@H](C)N[C@@H](CCC(C)(C)C)C(=O)O)cc1OC [Example 108, (S)-2-(((S)-1-(3,4-dimethoxyphenyl)ethyl)amino)-5,5-dimethylhexanoic acid] | – | 370 | – | –
24 | Cn1cnc2cc(CN[C@@H](CCC(C)(C)C)C(=O)O)ccc21 [Example 110, (2S)-5,5-dimethyl-2-{[(1-methyl-1H-1,3-benzodiazol-5-yl)methyl]amino}hexanoic acid] | – | 460 | – | –
25 | CC(C)(C)CC[C@H](NCc1ccc2occc2c1)C(=O)O [Example 117, (2S)-2-{[(1-benzofuran-5-yl)methyl]amino}-5,5-dimethylhexanoic acid] | – | 430 | – | –
26 | Cc1cc(CN[C@@H](CCC(C)(C)C)C(=O)O)ccn1 [Example 132] | – | 880 | – | –
27 | COc1ccc(CN[C@@H](CCC(C)(C)C)C(=O)O)cc1 [Example 133, (2S)-2-{[(4-methoxyphenyl)methyl]amino}-5,5-dimethylhexanoic acid] | – | 820 | – | –
28 | CC(C)(C)CC[C@H](NCc1cccc2[nH]ncc12)C(=O)O [Example 134, (2S)-2-{[(2H-indazol-4-yl)methyl]amino}-5,5-dimethylhexanoic acid] | – | 1320 | – | –
29 | CCn1ccc2c(CN[C@@H](CCC(C)(C)C)C(=O)O)cccc21 [Example 135, (2S)-2-{[(1-ethyl-1H-indol-4-yl)methyl]amino}-5,5-dimethylhexanoic acid] | – | 420 | – | –
30 | Cn1cnc2c(CN[C@@H](CCC(C)(C)C)C(=O)O)cccc21 [Example 138, (S)-5,5-dimethyl-2-(((1-methyl-1H-benzo[d]imidazol-4-yl)methyl)amino)hexanoic acid, Mesylic acid] | – | 740 | – | –
31 | CC(=O)c1cccc(CN[C@@H](CCC(C)(C)C)C(=O)O)c1 [Example 139, (2S)-2-{[(3-acetylphenyl)methyl]amino}-5,5-dimethylhexanoic acid] | – | 570 | – | –
32 | CC(N[C@@H](CCC(C)(C)C)C(=O)O)c1cncnc1 (stereo partly drawn) [Example 141, (2S)-5,5-dimethyl-2-((1-(pyrimidin-5-yl)ethyl)amino)hexanoic acid, HCl] | – | – | – | 640
33 | CC(N[C@@H](CCC(C)(C)C)C(=O)O)c1cncnc1 (stereo partly drawn) [Example 143, (2S)-5,5-dimethyl-2-((1-(pyrimidin-5-yl)ethyl)amino)hexanoic acid, HCl] | – | – | – | 890

— patent publication US20250268854A1, “2-AMINO-5,5-DIMETHYLHEXANOIC ACID DERIVATIVES AS SORTILIN MODULATORS FOR USE IN THE TREATMENT OF DISEASE OF THE CENTRAL NERVOUS SYSTEM” (c/o Vesper Bio ApS, priority 2021, published 2025)
